The results in this text go back to patent US20250270227A1, “CAMPTOTHECIN DERIVATIVE, AND PHARMACEUTICAL COMPOSITION AND USE THEREOF” (SIMCERE ZAIMING PHARMACEUTICAL CO., LTD., priority 2021, published 2025).

The target of one data set is CYP2C9 (Homo sapiens (Human), UniProt P11712). Nature of the data set: Inhibitory effect on CYP enzymatic activity in human liver microsomes. Format: in vitro ADME. As for the experimental part: (§1) The inhibition of CYP2C9, CYP2D6 and CYP3A4 enzymatic activities by the compounds of the present disclosure was determined by the following experimental method.
(§2) • 1. Human liver microsomes (Corning 452117) • 2. NADPH (Solarbio 705Y021) • 3. Positive substrates diclofenac (Sigma SLBV3438), dextromethorphan (TRC 3-EDO-175-1) and midazolam (Cerilliant FE01161704) • 4. Positive inhibitors sulfaphenazole (D. Ehrenstorfer GmbH 109012), quinidine (TCI WEODL-RE) and ketoconazole (Sigma 100M1091V) • 5. AB Sciex Triple Quad 5500 liquid chromatography-mass spectrometry
(§3) • 1. Preparation of 100 mM phosphate buffered saline (PBS): 7.098 g of Na2HPO4 was weighed, 500 mL of pure water was added and subjected to ultrasonic dissolution to obtain solution A. 3.400 g of KH2PO4 was weighed, 250 mL of pure water was added and subjected to ultrasonic dissolution to obtain solution B. Solution A was placed on a stirrer and solution B was slowly added until the pH value reached 7.4 to prepare 100 mM PBS buffer. • 2. Preparation of 10 mM NADPH solution with 100 mM PBS buffer. The 10 mM stock solution of the compound of the present disclosure was diluted with DMSO to obtain a 200× concentration of compound working solution (6000, 2000, 600, 200, 60, 20, 0 μM). The stock solution of positive inhibitors was diluted with DMSO to obtain a 200× concentration of positive inhibitor working solution (sulfaphenazole, 1000, 300, 100, 30, 10, 3, 0 μM; quinidine/ketoconazole, 100, 30, 10, 3, 1, 0.3, 0 μM). A 200× concentration of substrate working solution (120 μM diclofenac, 400 μM dextromethorphan, and 200 μM midazolam) was prepared with water, acetonitrile, or acetonitrile/methanol. • 3. 2 μL of 20 mg/ml liver microsome solution, 1 μL of substrate working solution, 1 μL of compound working solution and 176 μL of PBS buffer were taken, mixed uniformly, and pre-incubated in a 37° C. water bath for 15 min. To the positive control group was added 1 μL of sulfaphenazole, quinidine or ketoconazole working solution instead of compound working solution. A 10 mM NADPH solution was also pre-incubated in the 37° C. water bath for 15 min. After 15 min, 20 μL of NADPH was taken and added to each well to initiate the reaction, and the reaction was incubated at 37° C. for 5 min (CYP2C9), 20 min (CYP2D6) or 5 min (CYP3A4). Double samples were set for all incubation samples. After the corresponding time of incubation, 400 μL of glacial methanol containing internal standard was added to all samples to stop the reaction. The mixture was mixed uniformly by vortex and centrifuged at 3220 g for 40 min at 4° C. After the completion of the centrifugation, 100 μL of the supernatant was transferred to a loading plate, and 100 μL of ultrapure water was added and mixed uniformly for LC-MS/MS analysis.
(§4) The reduction in metabolite production in the administration group compared to the control group was compared by the ratio of sample peak area to internal standard peak area, and IC50 value was calculated by Excel XLfit 5.3.1.3.
(§5) The percent remaining activity was calculated by the following equation: […]
For orientation: Microsomes from liver hold many membrane-bound enzymes, among them those of drug oxidation.

The next data set has as its target CYP3A4 (Homo sapiens (Human), UniProt P08684). The description is as above. Format: in vitro ADME. As for the experimental part:
as §1, §2, §3, §4, §5

Another data set concerns the target CYP2D6 (Homo sapiens (Human), UniProt P10635). Described as above. Format: in vitro ADME. The procedure: as §1, §2, §3, §4, §5
Data set [1] in a line: Metabolic stability in liver microsomes. Format: in vitro ADME, human. The conditions noted are these: for half-life at 1 μM: human, microsomes. The procedure: The metabolic stability of the compounds of the present disclosure in liver microsomes was determined by the following experimental method.
• 1. Human liver microsomes (Corning 452117), Beagle dog liver microsomes (XENOTECH D1000), SD rat liver microsomes (XENOTECH R1000) and CD-1 mouse liver microsomes (XENOTECH M1000) • 2. Na2HPO4 (Tianjin Guangfu Fine Chemical Research Institute 20180130) • 3. KH2PO4 (Tianjin Guangfu Fine Chemical Research Institute 20180920) • 4. MgCl2 (Tianjin Guangfu Fine Chemical Research Institute 20191216) • 5. NADPH (Solarbio 1216C022) • 6. Positive control compound verapamil (Sigma MKBV4993V) • 7. AB Sciex API4000 liquid chromatography-mass spectrometry
• 1. Preparation of 100 mM phosphate buffered saline (PBS): 7.098 g of Na2HPO4 was weighed, 500 mL of pure water was added and subjected to ultrasonic dissolution to obtain solution A. 3.400 g of KH2PO4 was weighed, 250 mL of pure water was added and subjected to ultrasonic dissolution to obtain solution B. Solution A was placed on a stirrer and solution B was slowly added until the pH value reached 7.4 to prepare 100 mM PBS buffer. • 2. Preparation of reaction system
The reaction system was prepared according to the following table:
• 3. The reaction system was placed in a 37° C. water bath and pre-incubated for 10 min. 40 μL of 10 mM NADPH solution (NADPH was dissolved in 100 mM phosphate buffer) was added to the reaction system with the final concentration of NADPH being 1 mM. 40 μL of phosphate buffer was used instead of NADPH solution as negative control. The role of the negative control was to exclude the effect of the chemical stability of the compounds themselves. • 4. 4 μL of 100 μM compound of the present disclosure and the positive control compound verapamil were added to the reaction system to initiate the reaction, with the final concentration of the compound being 1 μM. • 5. After thorough mixing on a vortex oscillator, 50 μL of the incubated sample was taken out at 0.5 min, 15 min, 30 min, 45 min and 60 min, respectively, and the reaction was stopped with 200 μL of glacial acetonitrile containing internal standard. The sample was centrifuged at 3220 g for 45 min. […]
All the data was calculated by the Microsoft Excel software. The peak area was detected by extracting the ion chromatogram. The in vitro half-life (t1/2) of the compound was determined by performing linear fitting of the natural logarithm of elimination percent of the compound and time.
The in vitro half-life (t1/2) was calculated by means of the slope k: […]
The in vitro intrinsic clearance (unit: μL/min/mg protein) was calculated using the following equation: […]

The mark [2] stands for this setting: pH 7.4, human liver microsomes 0.5 mg/mL, 1 μM compound, 1 mM NADPH, 37° C., read-out: Stability in human liver microsomes t1/2.

Molecules are shown by their SMILES. Where two headings read alike, the source gives them in different places.

As a reminder, the IC50 is the point on the concentration scale where inhibition reaches its midpoint.

Chain of CYP2C9 (P11712 whole entry): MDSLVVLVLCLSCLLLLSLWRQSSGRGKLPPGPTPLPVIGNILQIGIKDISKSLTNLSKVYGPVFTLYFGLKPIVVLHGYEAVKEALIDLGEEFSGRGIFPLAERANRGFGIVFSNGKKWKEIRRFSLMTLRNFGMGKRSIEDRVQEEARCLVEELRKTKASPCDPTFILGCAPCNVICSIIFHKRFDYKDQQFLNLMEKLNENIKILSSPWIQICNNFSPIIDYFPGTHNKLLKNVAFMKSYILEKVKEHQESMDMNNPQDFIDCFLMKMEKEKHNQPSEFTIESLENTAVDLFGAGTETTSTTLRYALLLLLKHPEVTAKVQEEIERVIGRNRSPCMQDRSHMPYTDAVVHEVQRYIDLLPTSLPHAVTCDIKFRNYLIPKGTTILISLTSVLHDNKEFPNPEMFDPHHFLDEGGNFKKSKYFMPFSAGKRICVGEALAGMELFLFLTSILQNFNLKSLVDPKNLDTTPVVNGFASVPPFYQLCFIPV
Chain of CYP2D6 (P10635 whole entry): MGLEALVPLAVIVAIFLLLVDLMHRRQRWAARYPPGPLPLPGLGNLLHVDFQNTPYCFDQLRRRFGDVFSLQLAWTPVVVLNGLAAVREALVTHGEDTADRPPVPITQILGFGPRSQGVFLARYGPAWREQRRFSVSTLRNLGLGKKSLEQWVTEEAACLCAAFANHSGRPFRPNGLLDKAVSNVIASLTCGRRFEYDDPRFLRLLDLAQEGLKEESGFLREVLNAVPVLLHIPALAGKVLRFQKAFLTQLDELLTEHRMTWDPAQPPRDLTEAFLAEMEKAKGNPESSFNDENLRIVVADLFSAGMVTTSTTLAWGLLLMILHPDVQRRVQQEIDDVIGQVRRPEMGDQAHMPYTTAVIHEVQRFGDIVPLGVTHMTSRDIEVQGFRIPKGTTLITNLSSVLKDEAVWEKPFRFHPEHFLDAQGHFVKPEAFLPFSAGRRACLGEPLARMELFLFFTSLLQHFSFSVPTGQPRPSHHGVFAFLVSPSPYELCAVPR
Chain of CYP3A4 (P08684 whole entry): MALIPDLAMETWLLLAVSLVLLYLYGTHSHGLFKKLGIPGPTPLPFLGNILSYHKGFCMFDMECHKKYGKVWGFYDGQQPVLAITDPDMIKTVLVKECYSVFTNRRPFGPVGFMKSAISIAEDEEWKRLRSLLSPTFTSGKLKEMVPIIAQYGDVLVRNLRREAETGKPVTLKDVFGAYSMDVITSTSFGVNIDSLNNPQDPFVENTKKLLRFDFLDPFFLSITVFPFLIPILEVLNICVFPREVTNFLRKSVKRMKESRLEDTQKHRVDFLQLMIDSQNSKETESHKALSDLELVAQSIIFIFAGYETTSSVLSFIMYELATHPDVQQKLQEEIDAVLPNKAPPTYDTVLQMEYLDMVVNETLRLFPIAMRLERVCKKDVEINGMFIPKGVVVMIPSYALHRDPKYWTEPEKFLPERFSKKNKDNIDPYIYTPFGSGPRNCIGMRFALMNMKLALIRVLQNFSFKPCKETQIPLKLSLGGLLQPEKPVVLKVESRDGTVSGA

In the case of `CC[C@@]1(O)C(=O)OCc2c1cc1n(c2=O)Cc2c-1nc1cc3c(cc1c2CNC(=O)C(O)C1CC1)OCO3` (single isomer, unassigned) [Compound 14-P1], the IC50 against CYP2C9 is more than 50 µM; on CYP3A4 it was more than 50 µM; on CYP2D6 (read-out: Inhibition on CYP2D6 IC50, human liver microsomes, substrate dextromethorphan), more than 50 µM. Moreover, the half-life at 1 μM in data set [1] (setting [2]) came to 1.1 h.
Take `CC[C@@]1(O)C(=O)OCc2c1cc1n(c2=O)Cc2c-1nc1cc3c(cc1c2CNC(=O)C(O)C1CC1)OCO3` (single isomer, unassigned) [Compound 14-P2]: the IC50 on CYP2C9 (read-out: Inhibition on CYP2C9 IC50, human liver microsomes, substrate diclofenac) was more than 50 µM; on CYP3A4 (read-out: Inhibition on CYP3A4 IC50, human liver microsomes, substrate midazolam), more than 50 µM; at CYP2D6 it was more than 50 µM. Also, the “Stability in human liver microsomes t1/2” value in data set [1] (human liver microsomes 0.5 mg/mL, 1 μM compound, 1 mM NADPH, 37° C.) is 0.835 h.
Regarding `CC[C@@]1(O)C(=O)OCc2c1cc1n(c2=O)Cc2c-1nc1cc3c(c(F)c1c2CNC(=O)[C@@H](O)C1CC1)OCO3` (single isomer, unassigned) [Compound 37-P1], the IC50 at CYP2C9, at CYP3A4 and against CYP2D6 was more than 50 µM each time. For the same molecule, the half-life at 1 μM in data set [1] (pH 7.4) was found to be 1.75 h.
Turning to `[2H]C1([2H])Oc2cc3nc4c(c(CNC(=O)C(O)C5CC5)c3cc2O1)Cn1c-4cc2c(c1=O)COC(=O)[C@]2(O)CC` (stereo partly drawn) [Compound 39, 2-cyclopropyl-N-(((S)-7-ethyl-7-hydroxy-8,11-dioxo-7,8,11,13-tetrahydro-10H-[1,3]dioxolo[4,5-g]pyrano[3′,4′:6,7]indolizino[1,2-b]quinolin-14-yl-2,2-d2)methyl)-2-hydroxyacetamide], the IC50 against CYP2C9, on CYP3A4 and against CYP2D6 was more than 50 µM each time. In addition, in data set [1] (setting [2]), the half-life at 1 μM stood at 4.01 h.
